Patent US12251370B2, “Small molecule inhibitors of the BfrB:Bfd interaction” (BOARD OF SUPERVISORS OF LOUISIANA STATE UNIVERSITY AND …, priority 2018, dated 2025)
Converted amounts (≈) assume the structure as drawn. “And” between values parts separate entries of the source, which are not always exact repeats. Identical values can stand only once. Like-named read-outs stand apart in the source and are kept apart here.

Columns and labels:
A. baumannii [1] = assay: Growth curves and IC50 determination in A. baumannii; type: cell-based, Acinetobacter baumannii (AB5075); conditions: AB5075, modified M63 media, 48 well-plates
Protocol: (§1) Pre-cultures (5 mL LB media) were grown for 12 h at 37° C. and 220 rpm in 50 mL conical tubes (VWR International, PA) covered with an air permeable membrane. The cells were then centrifuged at 4,000 rpm for 10 min, the resultant cell pellets washed twice in M63 media and then diluted in M63 media to OD600=0.01. Stock solutions (100 mM) of analog in DMSO were prepared weekly and stored at 4° C. Prior to initiating experiments in 96 well plates, the analog stock solution was serially diluted to make 10 mM or 1 mM working solutions in DMSO. A small volume of the appropriate working solution was transferred to a glass vial, diluted with DMSO to 30 μL, and then diluted to a final volume of 1.5 mL with pre-culture cell suspension with an OD600=0.01. The resultant cell suspension (200 μL) was transferred to a clear-bottom polystyrene 96 well plate (VWR), and incubated at 35° C. and 205 cpm for 13 h in an Epoch 2 microplate spectrophotometer (Biotek Instruments, Inc., Vermont). The growth curve in the presence of Ciprofloxacin was obtained in the same plate. […] MIC determinations were carried out using standard broth microdilution methods in 48 well plates and modified M63 media. Cells were incubated at 35° C.
This idea was tested with A. baumanni AB5075, a highly virulent isolate, which has been proposed as a model strain for the evaluation of pathogenesis and antimicrobial treatments.^66.

P. aeruginosa [2] = assay: Growth curves and IC50 determination in P. aeruginosa; type: cell-based, Pseudomonas aeruginosa (PAO1); conditions: M63 media, growth % from OD600 at 13 h, three independent experiments
Protocol: as §1

A. baumannii [3] = assay: MIC determination by broth microdilution in A. baumannii; type: cell-based, Acinetobacter baumannii (AB5075); conditions: modified M63 media, 35° C.; for MIC: Acinetobacter baumannii
Protocol: as §1, with “M63” left out, “A small volume of the appropriate working solution was transferred to a glass vial, diluted with DMSO to 30 μL, and then diluted to a final volume of 1.5 mL with pre-culture cell suspension with an OD600=0.01.” left out

BfrB [4] = molecular target: T1, BfrB (Pseudomonas aeruginosa, UniProt Q9HY79); assay: STD NMR fragment screening with Bfd competitive displacement; type: binding; conditions: STD NMR with Bfd as specific competitor
Source text: Fragment Library Screening Using Saturation Transfer Difference (STD) NMR Spectroscopy
Structural information obtained from the BfrB-Bfd complex was used to design a fragment library to screen for molecules that bind BfrB at the Bfd-binding site. […] In addition, fragments capable of π-π stacking were included with both electron rich and deficient aromatic rings. To screen the library in search of fragments that bind BfrB at the Bfd-binding site a competition assay was developed that utilizes saturation transfer difference (STD) NMR spectroscopy. This technique is ideally suited to screen fragments that bind to the large BfrB (˜440 kDa) because protein resonance assignments are not necessary and very low protein concentrations are required. In addition, the large rotational correlation time (τc) of BfrB enhances spin diffusion and therefore saturation transfer within the protein and to the ligand.^51 Two solutions were prepared for each fragment: a solution of the fragment alone, and a solution of the fragment and BfrB. Three spectra were obtained for each fragment. The ^1H spectrum of the fragment alone was used to determine fragment integrity and solubility, the ^1H spectrum of the fragment in the presence of BfrB was used to corroborate that fragment integrity and solubility is not affected by BfrB, and the STD spectrum of the solution containing the fragment and BfrB was used to assess fragment binding. This strategy uncovered 18 compounds that bind BfrB. The specificity criterion for fragment binders, however, is that these bind BfrB specifically at the Bfd-binding site. To eliminate non-specific binders, a displacement strategy was implemented that utilizes Bfd as a specific competitor. For this purpose, a STD spectrum was acquired from a solution containing fragment, BfrB and Bfd. […] These fragments were advanced to the next stage, which was focused on uncovering structural information of fragment binding.

[5] = tested on: wild type P. aeruginosa cells; assay: Growth response of wild type cells to analog (viable cell count); type: cell-based, Pseudomonas aeruginosa; conditions: M63 + 4 μM Fe; 15 h post-inoculation; viable cells vs untreated control
Protocol: (§2) To this end, wild type and ΔbfrB cells were cultured in M63 media supplemented with 4 μM Fe, in the presence of different concentrations of analog. […] Since BfrB is not essential, it is likely that the cell can compensate for the absence of the iron storage protein. […] The sudden onset of toxicity observed in the second phase, which is not observed with the wild type cells, is probably related to off-target effects that expose a fitness vulnerability caused by the absence of BfrB. Consequently, it is possible to conclude that the dose-dependent growth defect elicited by 11 or 16 on wild type P. aeruginosa cells is largely a consequence of the interaction between the small molecule inhibitors and BfrB in the bacterial cell. This issue was investigated in additional detail (see below) by probing the phenotypic and biochemical response of wild type cells treated with the small molecule inhibitors.

[6] = tested on: ΔbfrB P. aeruginosa cells; assay: Growth response of bfrB deletion mutant cells to analog; type: cell-based, Pseudomonas aeruginosa; conditions: M63 + 4 μM Fe; 15 h post-inoculation; viable cells vs untreated control
Protocol: as §2

A. baumannii cells = assay: CAS assay for siderophore detection; type: cell-based, Acinetobacter baumannii; conditions: analog 64 μM; modified M63 media; 35° C.
Protocol: These experiments were carried out in 48 well-plates in a Synergy H1 microplate spectrophotometer as described above for obtaining A. baumannii growth curves. Cultures treated with analog KM-5-25 at 64 μM final concentration were used in these experiments. The cell-free supernatants (25 μL) collected after the 24-h growth curves had been completed was mixed with 175 μL of the CAS assay reagent (10 mM hexadecyltrimethyl ammonium bromide (HDTMA), 1 mM FeCl3·6H2O, 2 mM azurol S-CAS in 145 mM PIPES buffer, pH 5.9).^64 The absorbance at 630 nm was read in an Epoch2 microplate spectrophotometer after 2 h and used to calculate the percent siderophore (PSU) with the aid of equation 3,^65 where Ar is the absorbance of the reference solution (CAS solution and un-inoculated media) and As is the absorbance of the sample (CAS solution and cell-free supernatant). PSU values were normalized to CFU/mL.
The results are illustrated in FIGS. 8A and 8B with observations made when A. baumannii cells are cultured at 35° C. in modified M63 media treated with analogs KM-5-25 and KM-5-35.

apo-BfrB = apo-BfrB (Pseudomonas aeruginosa, UniProt Q9HY79); assay: Fluorescence polarization binding assay, apo-BfrB titrated into fluorescent ligand; conditions: fluorescence polarization and intensity near emission λmax
Protocol: Prior to testing the effect that the 4-substituted isoindoline-1,3-dione derivatives might exert on P. aeruginosa cells, the strength of their interaction with BfrB was evaluated in vitro with a fluorescence polarization assay developed based on the intrinsic fluorescence of the isoindoline-1,3-dione moiety.

P. aeruginosa PAO1 = assay: Effect of analogs on the potency of fluoroquinolone antibiotics, strain PAO1; type: cell-based, Pseudomonas aeruginosa; conditions: data not shown
Protocol: The combined treatment was carried out similarly, ensuring that the final concentration of DMSO was 2%.

P. aeruginosa [7] = conditions: literature value; cited from earlier work
BfrB [8] = molecular target: T1, BfrB; assay: Bfd association with BfrB in solution; type: binding; conditions: apo-BfrB; read-out: Kd, interaction between Bfd and apo-BfrB
BfrB [9] = molecular target: T1, BfrB; conditions: holo-BfrB; previously reported; read-out: Kd, interaction between Bfd and BfrB (holo); cited from earlier work

T1 sequence (Q9HY79 whole entry, the tested form may be a part): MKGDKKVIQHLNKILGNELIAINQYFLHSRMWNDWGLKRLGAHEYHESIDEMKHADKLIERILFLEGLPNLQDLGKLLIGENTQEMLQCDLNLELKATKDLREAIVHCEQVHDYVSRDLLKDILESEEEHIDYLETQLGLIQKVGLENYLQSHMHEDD
Sequence of apo-BfrB (Q9HY79 whole entry): as the sequence (Q9HY79 whole entry, the tested form may be a part) above

In the case of “4-((3-(4-Chloro-2-hydroxyphenyl)propyl)amino)isoindoline-1,3-dione [KM-5-66]”, the IC50 (A. baumannii [1]) is reported as less than 32 µM, the IC50 (P. aeruginosa [2]) is reported as 48 µM and the “A. baumannii MIC” value (A. baumannii [3]) is reported as 80 to 128 µM.

In the case of `Cc1cc(NS(=O)(=O)c2ccc(N)cc2)no1` [4-amino-N—(S-methylisoxazol-3-yl)benzenesulfonamide], the “fragment binding to BfrB, STD signal displaced by Bfd” value (shortened to “fragment binding to BfrB”) (BfrB [4]) is reported as “bind at the Bfd-binding site”.

With `Brc1cccc(-c2nnn[nH]2)c1` [5-(3-bromophenyl)-1H-tetrazole] the “fragment binding to BfrB” value (BfrB [4]) was “bind at the Bfd-binding site”.

With `O=C1NC(=O)c2cc(O)ccc21` [5-hydroxyisoindoline-1,3-dione] the “fragment binding to BfrB” value (BfrB [4]) was “bind at the Bfd-binding site”.

With `CC(=O)c1ccc2c(c1)NC(=O)CO2` [6-acetyl-2H-benzo[b][1,4]oxazin-3(4H)-one] the “fragment binding to BfrB” value (BfrB [4]) was “bind at the Bfd-binding site”.

In the case of `Nc1cccc2c1C(=O)NC2=O` [Analog 8, reference compound], the “P. aeruginosa IC50” value (P. aeruginosa [2]) is reported as “Not active”.

In the case of `O=C1NC(=O)c2c(NCc3ccccc3O)cccc21` [Analog 11, 4-((2-Hydroxybenzyl)amino)isoindoline-1,3-dione], the IC50 (P. aeruginosa [2]; Pseudomonas aeruginosa) is reported as 258 µM, the “growth response of wild type cells” value [5] is reported as “monophasic dose-dependent growth defect” and the “growth response of ΔbfrB mutant cells” value [6] is reported as “biphasic growth response”.

With `O=C1NC(=O)c2c(NCc3cccc(O)c3)cccc21` [Analog 12, 4-((3-Hydroxybenzyl)amino)isoindoline-1,3-dione] the “P. aeruginosa IC50” value (P. aeruginosa [2]) was “Not active”.

`O=C1NC(=O)c2c(NCCCc3ccc(O)cc3)cccc21` [Analog 13] showed an IC50 (P. aeruginosa [2]; Pseudomonas aeruginosa) of 201 µM.

`O=C1NC(=O)c2c(NCCCc3ccc(O)cc3O)cccc21` [Analog 14] gave an IC50 (P. aeruginosa [2]; Pseudomonas aeruginosa) of 143 µM.

Work on `COc1cc(O)ccc1CCCNc1cccc2c1C(=O)NC2=O` [Analog 15] yielded an IC50 (P. aeruginosa [2]; Pseudomonas aeruginosa) of 227 µM.

With `O=C1NC(=O)c2c(NCCCc3cc(F)ccc3O)cccc21` [JAG-005-006, 4-((3-(5-Fluoro-2-hydroxyphenyl)propyl)amino)isoindoline-1,3-dione] the IC50 (P. aeruginosa [2]; Pseudomonas aeruginosa) was 48 µM and the MIC (A. baumannii [3]) was 128 µM (≈ 40.2 µg/mL).

Work on `O=C1NC(=O)c2c(NCc3ccc(Br)cc3O)cccc21` [JAG-005-030, 4-((4-Bromo-2-hydroxybenzyl)amino)isoindoline-1,3-dione] yielded an IC50 (A. baumannii [1]; Acinetobacter baumannii) of 48 µM and an MIC (A. baumannii [3]) of 80 to 128 µM (≈ 27.8 to 44.4 µg/mL).

In the case of `O=C1NC(=O)c2c(NCc3cc(Cl)ccc3O)cccc21` [KM-5-25, 4-((5-Chloro-2-hydroxybenzyl)amino)isoindoline-1,3-dione], the IC50 (A. baumannii [1]; Acinetobacter baumannii) is reported as 64 µM, the IC50 (P. aeruginosa [2]; Pseudomonas aeruginosa) is reported as 64 µM and the “siderophores produced relative to untreated control, normalized to CFU/mL” value (A. baumannii cells) is reported as “approximately 2 fold”. The MIC (A. baumannii [3]) was 128 µM (≈ 38.7 µg/mL) and the Kd (apo-BfrB) was 2.9 ± 1.9 µM.

With `O=C1NC(=O)c2c(NCc3cc(Br)ccc3O)cccc21` [KM-5-35, 4-((5-Bromo-2-hydroxybenzyl)amino)isoindoline-1,3-dione] the IC50 (A. baumannii [1]; Acinetobacter baumannii) was 64 µM, the IC50 (P. aeruginosa [2]; Pseudomonas aeruginosa) was 48 µM and the “siderophores produced relative to untreated control, normalized to CFU/mL” value (A. baumannii cells) was “approximately 2 fold”. For the same molecule, the MIC (A. baumannii [3]) was 80 to 128 µM (≈ 27.8 to 44.4 µg/mL) and the Kd (apo-BfrB) was 2 ± 1.4 µM.

In the case of `CC(=O)Nc1ccc(Br)cc1` [N-(4-bromophenyl)acetamide], the “fragment binding to BfrB” value (BfrB [4]) is reported as “bind at the Bfd-binding site”.

With `CS(=O)(=O)Nc1ccc(C#N)cc1` [N-(4-cyanophenyl)methanesulfonamide] the “fragment binding to BfrB” value (BfrB [4]) was “bind at the Bfd-binding site”.

With `CC(C)(O/N=C(\C(=O)N[C@@H]1C(=O)N2C(C(=O)[O-])=C(C[n+]3ccccc3)CS[C@H]12)c1csc(N)n1)C(=O)O` [ceftazidime, reference compound] the “enhancement of antibacterial activity in combination with the small molecule inhibitors of the BfrB-Bfd interaction” value (P. aeruginosa PAO1) was “no enhancement”.

In the case of `O=C(O)c1cn(C2CC2)c2cc(N3CCNCC3)c(F)cc2c1=O` [ciprofloxacin], the “reported MIC” value (P. aeruginosa [7]) is listed as 0.25 µg/mL.

For `CCn1cc(C(=O)O)c(=O)c2cc(F)c(N3CCNCC3)cc21` [norfloxacin], the “reported MIC” value (P. aeruginosa [7]) is given as 0.9 µg/mL.

For `NC[C@H]1O[C@H](O[C@H]2[C@H](O)[C@@H](O[C@H]3O[C@H](CO)[C@@H](O)[C@H](N)[C@H]3O)[C@H](N)C[C@@H]2N)[C@H](N)C[C@@H]1O` [tobramycin, reference compound], the “enhancement of antibacterial activity in combination with the small molecule inhibitors of the BfrB-Bfd interaction” value (P. aeruginosa PAO1) was “no enhancement”.

For gentamycin [reference compound], the “enhancement of antibacterial activity in combination with the small molecule inhibitors of the BfrB-Bfd interaction” value (P. aeruginosa PAO1) was “no enhancement”.

B1: Bfd: bacterioferritin-associated ferredoxin, cognate partner of the iron storage protein BfrB (protein, UniProt Q9HY80 1-73, looked up)
Bacterioferritin-associated …: MYVCLCQGVTDNQIRDAIYEGCCSYREVREATGVGTQCGKCACLAKQVVRETLNDLQSAQPVPAFGTTAFVAA
For B1, the Kd (BfrB [8]) is listed as 3.1 µM and the Kd (BfrB [9]) is listed as 3.4 µM and 3 µM and ~3 µM.
